Results on 30 compounds are retold here after patent US10000473B2, “Indazole derivatives useful as glucagon receptor antagonists” (Janssen Pharmaceutica NV, priority 2016, dated 2018).

Usually Ki stands for the dissociation constant of the complex between target and ligand, obtained from inhibition or displacement.

T1 sequence (P47871 26-477): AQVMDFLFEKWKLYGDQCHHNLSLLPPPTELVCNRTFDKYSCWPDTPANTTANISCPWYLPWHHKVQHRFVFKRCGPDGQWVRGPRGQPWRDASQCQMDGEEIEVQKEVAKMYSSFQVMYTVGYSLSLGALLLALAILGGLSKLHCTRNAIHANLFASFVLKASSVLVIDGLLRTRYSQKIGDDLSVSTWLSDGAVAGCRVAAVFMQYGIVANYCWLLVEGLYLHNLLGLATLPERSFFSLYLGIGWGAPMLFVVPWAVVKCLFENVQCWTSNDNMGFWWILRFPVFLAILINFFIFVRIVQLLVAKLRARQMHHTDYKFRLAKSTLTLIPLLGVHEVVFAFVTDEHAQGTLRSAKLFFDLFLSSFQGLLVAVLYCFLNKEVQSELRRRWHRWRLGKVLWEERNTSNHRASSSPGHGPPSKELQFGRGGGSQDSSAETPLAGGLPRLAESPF

The test has as its target T1, human GCGR (Homo sapiens, UniProt P47871).
T1 construct: expressed in transfected cells; host or cells: HEK293 (hGluc-1HEK), pcDNA3.1, G418 selection
Briefly: Cellular functional assay, cAMP readout (glucagon-stimulated cAMP, LANCE TR-FRET). It is filed as cell-based. Particulars: HEK293 cells stably expressing full-length human GCGR; glucagon 100 pM; IC50 converted to Ki; read-out: Inhibition of cAMP Ki. On the technique in general: Time-resolved FRET reads energy transfer from a long-lived donor to a nearby acceptor.
Consider `COc1c(-c2ccc(C(F)(F)F)cc2Cl)ccc2nn(C(CC(C)C)c3ccc(C(=O)NCCC(=O)O)nc3)cc12` (stereo not drawn) [Compound #178, 3-(5-(1-(5-(2-Chloro-4-(trifluoromethyl)phenyl)-4-methoxy-2H-indazol-2-yl)-3-methylbutyl)picolinamido)propanoic acid], for which the inhibition constant Ki was 22 nM.
Then `CCOc1c(-c2ccc(C(F)(F)F)cc2Cl)ccc2c1cnn2C(CC(C)C)c1ccc(C(=O)NCCC(=O)O)nc1` (stereo not drawn) [Compound #179, 3-(5-(1-(5-(2-Chloro-4-(trifluoromethyl)phenyl)-4-ethoxy-1H-indazol-1-yl)-3-methylbutyl)picolinamido)propanoic acid], with 24 nM.
For `CC(C)(F)CC(c1ccc(C(=O)NCCC(=O)O)cc1)n1ncc2cc(-c3ccc(C(F)(F)F)cc3)ccc21` (stereo not drawn) [Compound #185, 3-(4-(3-Fluoro-3-methyl-1-(5-(4-(trifluoromethyl)phenyl)-1H-indazol-1-yl)butyl)benzamido)propanoic acid] the value was 430 nM; for `Cc1cc(C(F)(F)F)ccc1-c1cc2cn(C(CC(C)C)c3ccc(C(=O)NCCC(=O)O)nc3)nc2cc1C` (stereo not drawn) [Compound #187, 3-[[5-[3-Methyl-1-[6-methyl-5-[2-methyl-4-(trifluoromethyl)phenyl]indazol-2-yl]butyl]pyridine-2-carbonyl]amino]propanoic acid], 30 nM; for `Cc1cc(C(F)(F)F)ccc1-c1ccc2nn(C(CC(C)C)c3ccc(C(=O)NCCC(=O)O)cc3)cc2c1` (stereo not drawn) [Compound #189, 3-(4-(3-Methyl-1-(5-(2-methyl-4-(trifluoromethyl)phenyl)-2H-indazol-2-yl)butyl)benzamido)propanoic acid], 199 nM.
Regarding `Cc1c(-c2ccc(Cl)cc2Cl)ccc2nn(C(CC(C)C)c3ccc(C(=O)NCCC(=O)O)cc3)cc12` (stereo not drawn) [Compound #190, 3-(4-(1-(5-(2,4-Dichlorophenyl)-4-methyl-2H-indazol-2-yl)-3-methylbutyl)benzamido)propanoic acid], the Ki came to 25 nM.
Consider `COc1c(-c2ccc(C(F)(F)F)cc2Cl)ccc2nn([C@H](CC(C)C)c3ccc(C(=O)NCCC(=O)O)cc3)cc12` [Compound #191, 3-[[4-[(1R)-1-[5-[2-Chloro-4-(trifluoromethyl)phenyl]-4-methoxy-indazol-2-yl]-3-methyl-butyl]benzoyl]amino]propanoic acid], for which the Ki turned out to be 35 nM.
Then `COc1c(-c2ccc(C(F)(F)F)cc2C)ccc2c1cnn2[C@@H](CC(C)C)c1ccc(C(=O)NCCC(=O)O)cc1` [Compound #192, 3-[[4-[(1S)-1-[4-Methoxy-5-[2-methyl-4-(trifluoromethyl)phenyl]indazol-1-yl]-3-methyl-butyl]benzoyl]amino]propanoic acid], with 22 nM; and `CCOc1c(-c2ccc(C(F)(F)F)cc2C)ccc2c1cnn2C(CC(C)C)c1ccc(C(=O)NCCC(=O)O)nc1` (stereo not drawn) [Compound #197, 3-(5-(1-(4-Ethoxy-5-(2-methyl-4-(trifluoromethyl)phenyl)-1H-indazol-1-yl)-3-methylbutyl)picolinamido)propanoic acid], with 15 nM.
`Cc1c(-c2ccc(C(F)(F)F)cc2Cl)ccc2c1cnn2C(CC(C)C)c1ccc(C(=O)NCCC(=O)O)nc1` (stereo not drawn) [Compound #198, 3-(5-(1-(5-(2-Chloro-4-(trifluoromethyl)phenyl)-4-methyl-1H-indazol-1-yl)-3-methylbutyl)picolinamido)propanoic acid]: the Ki was 60 nM.
Then `COc1c(-c2ccc(C(F)(F)F)cc2Cl)ccc2c1cnn2[C@@H](CC(C)C)c1ccc(C(=O)NCCC(=O)O)cc1` [Compound #201, 3-[[4-[(1S)-1-[5-[2-Chloro-4-(trifluoromethyl)phenyl]-4-methoxy-indazol-1-yl]-3-methyl-butyl]benzoyl]amino]propanoic acid], with 30 nM; and `CCOc1c(-c2ccc(C(F)(F)F)cc2Cl)ccc2nn(C(CC(C)C)c3ccc(C(=O)NCCC(=O)O)nc3)cc12` (stereo not drawn) [Compound #205, 3-(5-(1-(5-(2-Chloro-4-(trifluoromethyl)phenyl)-4-ethoxy-2H-indazol-2-yl)-3-methylbutyl)picolinamido)propanoic acid], with 57 nM.
On to `CCOc1c(-c2ccc(C(F)(F)F)cc2C)ccc2nn(C(CC(C)C)c3ccc(C(=O)NCCC(=O)O)nc3)cc12` (stereo not drawn) [Compound #207, 3-(5-(1-(4-Ethoxy-5-(2-methyl-4-(trifluoromethyl)phenyl)-2H-indazol-2-yl)-3-methylbutyl)picolinamido)propanoic acid], for which the Ki was found to be 17 nM.
For `COc1c(-c2ccc(C(F)(F)F)cc2C)ccc2c1cnn2C(CC(C)C)c1ccc(C(=O)NCCC(=O)O)nc1` (stereo not drawn) [Compound #213, 3-(5-(1-(4-Methoxy-5-(2-methyl-4-(trifluoromethyl)phenyl)-1H-indazol-1-yl)-3-methylbutyl)picolinamido)propanoic acid] the value was 75 nM; for `Cc1cc(C(F)(F)F)ccc1-c1cc2cnn(C(CC(C)C)c3ccc(C(=O)NCCC(=O)O)nc3)c2cc1C` (stereo not drawn) [Compound #214, 3-[[5-[3-Methyl-1-[6-methyl-5-[2-methyl-4-(trifluoromethyl)phenyl]indazol-1-yl]butyl]pyridine-2-carbonyl]amino]propanoic acid], 32 nM.
For `O=C(O)CCNC(=O)c1ccc(C(CCC2CCC2)n2cc3cc(-c4ccc(C(F)(F)F)cc4)ccc3n2)cc1` (stereo not drawn) [Compound #215, 3-(4-(3-Cyclobutyl-1-(5-(4-(trifluoromethyl)phenyl)-2H-indazol-2-yl)propyl)benzamido)propanoic acid], the Ki was found to be 210 nM.
In the case of `O=C(O)CCNC(=O)c1ccc(C(CCC(F)(F)F)n2ncc3cc(-c4ccc(F)cc4Cl)ccc32)cc1` (stereo not drawn) [Compound #223, 3-(4-(1-(5-(2-Chloro-4-fluorophenyl)-1H-indazol-1-yl)-4,4,4-trifluorobutyl)benzamido)propanoic acid], the Ki was 950 nM.
Then `O=C(O)CCNC(=O)c1ccc(C(CCC(F)(F)F)n2cc3cc(-c4ccc(Cl)cc4Cl)ccc3n2)cc1` (stereo not drawn) [Compound #224, 3-[[4-[1-[5-(2,4-Dichlorophenyl)indazol-2-yl]-4,4,4-trifluorobutyl]benzoyl]amino]propanoic acid], with 110 nM; and `CC(C)CC(c1ccc(C(=O)NCCC(=O)O)cc1)n1cc2cc(-c3ccc(C(F)(F)F)cc3Cl)ccc2n1` (stereo not drawn) [Compound #225, 3-(4-(1-(5-(2-Chloro-4-(trifluoromethyl)phenyl)-2H-indazol-2-yl)-3-methylbutyl)benzamido)propanoic acid], with 150 nM.
With `CC(C)CC(c1ccc(C(=O)NCCC(=O)O)cc1)n1cc2cc(-c3ccc(Cl)cc3Cl)ccc2n1` (stereo not drawn) [Compound #226, 3-(4-(1-(5-(2,4-Dichlorophenyl)-2H-indazol-2-yl)-3-methylbutyl)benzamido)propanoic acid], the Ki was 242 nM.
With `CC(C)CCC(c1ccc(C(=O)NCCC(=O)O)cc1)n1cc2cc(-c3ccc(C(C)(C)C)cc3)ccc2n1` (stereo not drawn) [Compound #227, 3-(4-(1-(5-(4-(tert-Butyl)phenyl)-2H-indazol-2-yl)-4-methylpentyl)benzamido)propanoic acid], the Ki worked out at 330 nM.
For `CC(C)(C)c1ccc(-c2ccc3nn(C(CC4CCCCC4)c4ccc(C(=O)NCCC(=O)O)cc4)cc3c2)cc1` (stereo not drawn) [Compound #228, 3-(4-(1-(5-(4-(tert-Butyl)phenyl)-2H-indazol-2-yl)-2-cyclohexylethyl)benzamido)propanoic acid] the value was 130 nM; for `Cc1cc2c(cnn2[C@H](CC(C)C)c2ccc(C(=O)NCCC(=O)O)cc2)cc1-c1ccc(C(F)(F)F)cc1` [Compound #229, 3-[[4-[(1R)-3-Methyl-1-[6-methyl-5-[4-(trifluoromethyl)phenyl]indazol-1-yl]butyl]benzoyl]amino]propanoic acid], 1550 nM.
Then `COc1c(-c2ccc(C(F)(F)F)cc2C)ccc2nn(C(CC(C)C)c3ccc(C(=O)NCCC(=O)O)cc3)cc12` (stereo not drawn) [Compound #233, 3-(4-(1-(4-Methoxy-5-(2-methyl-4-(trifluoromethyl)phenyl)-2H-indazol-2-yl)-3-methylbutyl)benz-amido)propanoic acid], with 24 nM.
For `COc1c(-c2ccc(C(F)(F)F)cc2C)ccc2nn(C(CC(C)C)c3ccc(C(=O)NCCC(=O)O)nc3)cc12` (stereo not drawn) [Compound #236, 3-(5-(1-(4-Methoxy-5-(2-methyl-4-(trifluoromethyl)phenyl)-2H-indazol-2-yl)-3-methylbutyl)picolinamido)propanoic acid] the value was 12 nM.
With `O=C(O)CCNC(=O)c1ccc(C(CCC2CCC2)n2ncc3cc(-c4ccc(C(F)(F)F)cc4)ccc32)cc1` (stereo not drawn) [Compound #239, 3-(4-(3-Cyclobutyl-1-(5-(4-(trifluoromethyl)phenyl)-1H-indazol-1-yl)propyl)benzamido)propanoic acid], the Ki stood at 260 nM.
Turning to `Cc1c(-c2ccc(C(F)(F)F)cc2Cl)ccc2c1cnn2[C@@H](CC(C)C)c1ccc(C(=O)NCCC(=O)O)cc1` [Compound #241, (S)-3-(4-(1-(5-(2-Chloro-4-(trifluoromethyl)phenyl)-4-methyl-1H-indazol-1-yl)-3-methylbutyl)benzamido)propanoic acid], the Ki stood at 42 nM.
Regarding `Cc1cc2nn(C(CC(C)C)c3ccc(C(=O)NCCC(=O)O)nc3)cc2cc1-c1ccc(C(F)(F)F)cc1Cl` (stereo not drawn) [Compound #242, 3-[[5-[1-[5-[2-Chloro-4-(trifluoromethyl)phenyl]-6-methyl-indazol-2-yl]-3-methyl-butyl]pridine-2-carbonyl]amino]propanoic acid], the Ki is 65 nM.
Take `Cc1cc(C(F)(F)F)ccc1-c1ccc2nn(C(CC(C)C)c3ccc(C(=O)NCCC(=O)O)nc3)cc2c1C(F)(F)F` (stereo not drawn) [Compound #246, 3-(5-(3-Methyl-1-(5-(2-methyl-4-(trifluoromethyl)phenyl)-4-(trifluoromethyl)-2H-indazol-2-yl)butyl)picolinamido)propanoic acid]: the Ki is > 5200 nM.
For the compound `COc1c(-c2ccc(C(F)(F)F)cc2Cl)ccc2c1cnn2C(CC(C)C)c1ccc(C(=O)NCCC(=O)O)nc1` (stereo not drawn) [Compound #250, 3-(5-(1-(5-(2-Chloro-4-(trifluoromethyl)phenyl)-4-methoxy-1H-indazol-1-yl)-3-methylbutyl)picolinamido)propanoic acid], the inhibition constant Ki turned out to be 55 nM.
